Source: patent US20090048292A1, “SYNERGISTIC COMBINATION” (priority 2007, published 2009)
Several values for one entry are separate records, joined by “and”; a condition that tells them apart may be missing. Identical values can stand only once.

Key:
[1] = test system: human SK-Mel28 melanoma cells; assay: Different angiogenesis inhibitors as monotherapy in human melanoma model SK-Mel28 (FIG. 1); assay type: in vivo; settings: daily treatment from tumor size 20-30 mm^2; ZK261991 orally 50 mg/kg per day
Method: Human SK-MeI 28 melanoma cells were cultivated in RPMI1640 medium together with 1% glucose and 10% foetal calf serum. 3 million cells per animal have been transferred to NMRI nu/nu nude mice in a volume of 0,1 ml in a 1:1 mixture consisting of media and matri gel. With achieving the tumor size of about 20 mm^2, in this case on day 3, the treatment of the animals has been started.
In a human melanoma model SK-Mel28 different angiogenesis inhibitors have been tested. […] In this experiment the tumor have been daily treated with different compounds beginning after establishment of the tumors, respectively at a size of 20-30 mm^2. The compound ZK261991 was orally applied in a dosage of 50 mg/kg per day and in a volume of 0.1 ml/10 g body weight, as a 5% DMSO/Ethanol 1:1 mixture in 0.085 Myrj85®/0.9% NaCl formulation. ZK222584 (PTK/ZK, Vatalanib) comprised in the same formulation was applied. Further Bay43-9006 (Nexavar®) in 30% hydroxy propyl cyclodextrine (HP-β-CD), pH 5.0 in the same volume of 0.1 ml/10 g body weight was applied. […] However, no reaction could be determined with a dosage of 5 and 10 mg/kg (s. FIG. 2). The tumors have been treated in a daily manner with different MS-275 dosages, beginning with the set up at a size of ca. 20-30 mm^2. MS-275 was applied in 30% hydroxypropyl cyclodextrine (HP-β-CD), pH5.0, in a volume of 0.1 ml/10 g body weight.

[2] = test system: Human SK-MeI 28 melanoma cells; assay: Combination study of ZK 261991 and MS-275 in human SK-Mel 28 melanoma model in NMRI nu/nu nude mice (tumor area, tumor weight); assay type: in vivo; settings: for Tumor area on day 57, average: group average; for Tumor area of the single studied groups on day 57: single animals
Method: For this, the animals have been randomized and separated into the following test group (8 animals per group, each):
MS-275; 10 mg/kg/day 3. […] Untreated control (these animals received the solution solvent, only)
The compounds are orally daily applied via a probang till the end of the experiment on day 57. The tumor size was determined (length×width) after 6-7 days. On day 57, the animals were sacrificed by breaking the neck and the tumors were isolated. The weight of the tumors was determined. The tumor size (tumor area in mm^2) was inserted into a diagram, as function of the time. An average of the tumor weight of each group was calculated, as well as the variation and was inserted into a diagram. In the same time interval the tumor size was determined, also the body weight was determined by balancing. The data were inserted in a diagram as function of the time.
The tumors were treated in a daily manner with the different compounds beginning with the establishment, at a size of ca. 20.30 mm^2. […] For the calculation of the statistically signification the SigmaStat-programm with the One-Way-ANOVA-analysis was used.
For the calculation of the statistically significance the SigmaStat-program with a One-Way-ANOVA-analysis was used.

[3] = day 57, ZK261991 50 mg/kg/day, MS-275 10 mg/kg/day, oral daily, alone or combined

**Q.** For `CNC(=O)c1cc(Oc2ccc(NC(=O)Nc3ccc(Cl)c(C(F)(F)F)c3)cc2)ccn1` [Bay43-9006], which “inhibitory effect onto the tumor growth, FIG. 1” value [1] is on record?
**A.** No inhibitory effect

**Q.** Which results are given for `Nc1ccccc1NC(=O)c1ccc(CNC(=O)OCc2cccnc2)cc1` [MS-275, 3-pyridylmethyl-N-{4-[(2-amino-phenyl)-carbamoyl]benzyl}carbamate]?
**A.** reduction of the tumor weight in comparison to the untreated control (percentage of inhibition) [2, 3]: 0%; Tumor area on day 57, average ([2]; MS-275 10 mg/kg/day oral daily, day 57): 135.7 mm^2; Tumor area of the single studied groups on day 57 ([2]; MS-275 10 mg/kg/day oral daily, day 57, 10 mg/kg/day): 132.1 mm^2 and 169.1 mm^2 and 142.9 mm^2 and 128.6 mm^2 and 169.2 mm^2 and 104.2 mm^2 and 112.1 mm^2 and 127.2 mm^2

**Q.** `Clc1ccc(Nc2nnc(Cc3ccncc3)c3ccccc23)cc1` [ZK222584, Vatalanib] was tested. Which “inhibitory effect onto the tumor growth, FIG. 1” value [1] did it give?
**A.** No inhibitory effect

**Q.** Which results are given for `CN(C)C(=O)Nc1cc(CNc2ccccc2C(=O)Nc2ccc3cn(C)nc3c2)ccn1` [ZK 261991, N′2′-{[2-(3,3-Dimethylureido)pyridine-4-yl]methyl}-N-(2-methyl-2H-indazol-6-yl)Anthranilamid]?
**A.** reaction of tumor growth (tumor area) to treatment, FIG. 3 ([2]; daily oral treatment, ZK261991 50 mg/kg/day, MS-275 10 mg/kg, alone or combined, One-Way-ANOVA): statistically significant but moderate result; T/C value (tumor weight) [2, 3]: 0.55; reduction of the tumor weight in comparison to the untreated control (percentage of inhibition) [2, 3]: 45%; Tumor area on day 57, average ([2]; ZK 261991 50 mg/kg/day oral daily, day 57): 104.7 mm^2; Tumor area of the single studied groups on day 57 ([2]; ZK 261991 50 mg/kg/day oral daily, day 57, 50 mg/kg/day): 109.5 mm^2 and 100.1 mm^2 (2×) and 105.0 mm^2 and 118.8 mm^2 and 88.8 mm^2 and 116.3 mm^2 and 98.9 mm^2; inhibitory effect onto the tumor growth, FIG. 1 [1]: No inhibitory effect
